Assay [1] concerns Aspergillus fumigatus. In words: Antifungal activity against Aspergillus fumigatus NRRL5109 infected in pig cornea assessed as suppression of fungal growth at 5 % administered post fungal infection measured after 4 days by microscopic analysis. It is filed as functional, organism-based. To be noted: time 4.0 day.
Assay [2] has as its system Candida albicans. In words: Antifungal activity against Candida albicans SC5314 infected in pig cornea assessed as suppression of fungal growth at 5 % administered post fungal infection measured after 4 days by microscopic analysis. The format is functional, organism-based. The note with it: time 4.0 day.
The test system of assay [3] is Candida albicans. In words: Antifungal activity against fluconazole-resistant Candida albicans SC5314 infected in pig cornea assessed as suppression of fungal growth at 5 % administered post fungal infection measured after 4 days by microscopic analysis. It is filed as functional, organism-based. To be noted: time 4.0 day.
Assay [4] deals with Hamigera insecticola. The assay can be described thus: Antifungal activity against Hamigera insecticola NRRL35442 assessed as reduction in fungal growth incubated for 48 hrs by microplate reader analysis. It is filed as functional.
Assay [5] has as its system Cryptococcus neoformans. The assay can be described thus: Antifungal activity against Cryptococcus neoformans H99 assessed as reduction in fungal viability incubated for 48 hrs by microplate reader analysis. It is filed as functional.
Assay [6] has as its system Aspergillus terreus. The assay can be described thus: Antifungal activity against Aspergillus terreus 191A6 assessed as reduction in fungal growth incubated for 48 hrs by microplate reader analysis. The format is functional.
For assay [7], the system named is Aspergillus fumigatus. In words: Antifungal activity against Aspergillus fumigatus NRRL5109 assessed as reduction in fungal growth incubated for 48 hrs by microplate reader analysis. It is filed as functional.
The subject of assay [8] is Aspergillus terreus. In words: Antifungal activity against Aspergillus terreus 191A6 assessed as reduction in fungal viability incubated for 48 hrs by microplate reader analysis. The format is functional.
The subject of assay [9] is Pichia kudriavzevii. The assay can be described thus: Antifungal activity against Candida krusei ATCC 6258 (Y-7179) assessed as reduction in fungal viability incubated for 48 hrs by microplate reader analysis. The format is functional.
Assay [10] deals with Paecilomyces lilacinus. In words: Antifungal activity against Paecilomyces lilacinus 165E10 assessed as reduction in fungal viability incubated for 48 hrs by microplate reader analysis. It is filed as functional, Purpureocillium lilacinum.
The test system of assay [11] is Candida albicans. In words: Antifungal activity against Candida albicans ATCC 10231 assessed as reduction in fungal viability incubated for 48 hrs by microplate reader analysis. It is filed as functional.
The subject of assay [12] is Aspergillus flavus. In words: Antifungal activity against Aspergillus flavus NRRL485 assessed as reduction in fungal growth incubated for 48 hrs by microplate reader analysis. The format is functional.
In assay [13] the test system is Mucor circinelloides. The assay can be described thus: Antifungal activity against Mucor circinelloides 235C7 assessed as reduction in fungal growth incubated for 48 hrs by microplate reader analysis. It is filed as functional.
The subject of assay [14] is Candida albicans. The assay can be described thus: Antifungal activity against Candida albicans SC5314 assessed as reduction in fungal growth incubated for 48 hrs by microplate reader analysis. It is filed as functional.
Assay [15] relates to Fusarium solani. In words: Antifungal activity against Fusarium solani 243G2 assessed as reduction in fungal viability incubated for 48 hrs by microplate reader analysis. It is filed as functional.
The test system of assay [16] is Candida tropicalis. The assay can be described thus: Antifungal activity against Candida tropicalis ATCC750 (Y-12699) assessed as reduction in fungal growth incubated for 48 hrs by microplate reader analysis. The format is functional.
Assay [17] has as its system Aspergillus flavus. In words: Antifungal activity against Aspergillus flavus NRRL485 assessed as reduction in fungal viability incubated for 48 hrs by microplate reader analysis. It is filed as functional.
The subject of assay [18] is Cryptococcus neoformans. The assay can be described thus: Antifungal activity against Cryptococcus neoformans H99 assessed as reduction in fungal growth incubated for 48 hrs by microplate reader analysis. The format is functional.
For assay [19], the system named is Candida albicans. In words: Antifungal activity against Candida albicans ATCC 10231 assessed as reduction in fungal growth incubated for 48 hrs by microplate reader analysis. The format is functional.
Assay [20] concerns Rhizopus arrhizus. The assay can be described thus: Antifungal activity against Rhizopus oryzae FGSC 9543 assessed as reduction in fungal growth incubated for 48 hrs by microplate reader analysis. The format is functional.
Assay [21] has as its system Candida parapsilosis. In words: Antifungal activity against Candida parapsilosis ATCC 22019 (Y-12969) assessed as reduction in fungal viability incubated for 48 hrs by microplate reader analysis. It is filed as functional.
Assay [22] relates to Curvularia lunata. In words: Antifungal activity against Curvularia lunata NRRL6409 assessed as reduction in fungal viability incubated for 48 hrs by microplate reader analysis. The format is functional.
Assay [23] concerns Aspergillus fumigatus. The assay can be described thus: Antifungal activity against Aspergillus fumigatus NRRL5109 assessed as reduction in fungal viability incubated for 48 hrs by microplate reader analysis. The format is functional.
Assay [24] relates to Hamigera insecticola. In words: Antifungal activity against Hamigera insecticola NRRL35442 assessed as reduction in fungal viability incubated for 48 hrs by microplate reader analysis. It is filed as functional.
For assay [25], the system named is Candida parapsilosis. In words: Antifungal activity against Candida parapsilosis ATCC 22019 (Y-12969) assessed as reduction in fungal growth incubated for 48 hrs by microplate reader analysis. The format is functional. To be noted: Lodderomyces parapsilosis.
The subject of assay [26] is Mucor circinelloides. The assay can be described thus: Antifungal activity against Mucor circinelloides 235C7 assessed as reduction in fungal viability incubated for 48 hrs by microplate reader analysis. The format is functional.
For assay [27], the system named is Aspergillus fumigatus. In words: Antifungal activity against Aspergillus fumigatus NRRL6113 assessed as reduction in fungal growth incubated for 48 hrs by microplate reader analysis. It is filed as functional.
The test system of assay [28] is Candida albicans. In words: Antifungal activity against Candida albicans SC5314 assessed as reduction in fungal viability incubated for 48 hrs by microplate reader analysis. It is filed as functional.
Assay [29] deals with Aspergillus niger. The assay can be described thus: Antifungal activity against Aspergillus niger FGSC A732 assessed as reduction in fungal viability incubated for 48 hrs by microplate reader analysis. The format is functional.
Assay [30] deals with Aspergillus fumigatus. The assay can be described thus: Antifungal activity against Aspergillus fumigatus NRRL6113 assessed as reduction in fungal viability incubated for 48 hrs by microplate reader analysis. It is filed as functional.
Assay [31] concerns Aspergillus fumigatus. The assay can be described thus: Antifungal activity against Aspergillus fumigatus MYA 3627 assessed as reduction in fungal growth incubated for 48 hrs by microplate reader analysis. It is filed as functional.
Assay [32] has as its system Aspergillus niger. In words: Antifungal activity against Aspergillus niger FGSC A732 assessed as reduction in fungal growth incubated for 48 hrs by microplate reader analysis. It is filed as functional.
For assay [33], the system named is Rhizopus arrhizus. The assay can be described thus: Antifungal activity against Rhizopus oryzae FGSC 9543 assessed as reduction in fungal viability incubated for 48 hrs by microplate reader analysis. It is filed as functional.
In assay [34] the test system is Paecilomyces lilacinus. In words: Antifungal activity against Paecilomyces lilacinus 165E10 assessed as reduction in fungal growth incubated for 48 hrs by microplate reader analysis. The format is functional. The note with it: Purpureocillium lilacinum.
For assay [35], the system named is Pichia kudriavzevii. The assay can be described thus: Antifungal activity against Candida krusei ATCC 6258 (Y-7179) assessed as reduction in fungal growth incubated for 48 hrs by microplate reader analysis. It is filed as functional.
For assay [36], the system named is Aspergillus fumigatus. The assay can be described thus: Antifungal activity against Aspergillus fumigatus MYA 3627 assessed as reduction in fungal viability incubated for 48 hrs by microplate reader analysis. The format is functional.
In assay [37] the test system is Curvularia lunata. The assay can be described thus: Antifungal activity against Curvularia lunata NRRL6409 assessed as reduction in fungal growth incubated for 48 hrs by microplate reader analysis. The format is functional.
Assay [38] has as its system Fusarium solani. In words: Antifungal activity against Fusarium solani 243G2 assessed as reduction in fungal growth incubated for 48 hrs by microplate reader analysis. It is filed as functional.
In assay [39] the test system is Candida tropicalis. In words: Antifungal activity against Candida tropicalis ATCC750 (Y-12699) assessed as reduction in fungal viability incubated for 48 hrs by microplate reader analysis. The format is functional.
Assay [40] concerns Aspergillus fumigatus. The assay can be described thus: Antifungal activity against Aspergillus fumigatus NRRL5109 infected in pig cornea assessed as suppression of fungal growth at 2 % administered post fungal infection measured after 4 days by microscopic analysis. The format is functional, organism-based. To be noted: time 4.0 day.
For assay [41], the system named is Candida albicans. In words: Antifungal activity against fluconazole-resistant Candida albicans SC5314 infected in pig cornea assessed as suppression of fungal growth at 2 % administered post fungal infection measured after 4 days by microscopic analysis. The format is functional, organism-based. The note with it: time 4.0 day.

Experimental findings from ChEMBL document CHEMBL5390204, “Persephacin Is a Broad-Spectrum Antifungal Aureobasidin Metabolite That Overcomes Intrinsic Resistance in Aspergillus fumigatus” (J Nat Prod, 2023) are described below.

Values after ≈ are worked out from the molar mass of the structure shown. Active and inactive are the calls of the source. The rule behind the calls is not given here.

As for `C[C@@H]1C/C=C/C=C/C=C/C=C/[C@H](O[C@@H]2O[C@H](C)[C@@H](O)[C@H](N)[C@@H]2O)C[C@@H]2O[C@](O)(C[C@@H](O)C[C@H]3O[C@@H]3/C=C/C(=O)O1)C[C@H](O)[C@H]2C(=O)O`, the outcome with Aspergillus fumigatus [1], with Candida albicans [2] and with Candida albicans [3] was Active.
Take `CCC(C)n1ncn(-c2ccc(N3CCN(c4ccc(OCC5COC(Cn6cncn6)(c6ccc(Cl)cc6Cl)O5)cc4)CC3)cc2)c1=O` (centres undefined) [ITRACONAZOLE]: the MFC – broadly, the lowest tested concentration that kills the fungus rather than only halting it – in the assay with Hamigera insecticola [4] is 1.35 µM (≈ 0.953 µg/mL); in the assay with Aspergillus terreus [6] it was 2.5 µM (≈ 1.76 µg/mL); in the assay with Aspergillus fumigatus [7] it was 10 µM (≈ 7.06 µg/mL); in the assay on Aspergillus flavus [12] it was 0.6 µM (≈ 0.423 µg/mL); in the assay with Mucor circinelloides [13], more than 10 µM; with Candida albicans [14] it was more than 10 µM. For the same compound, the MFC in the assay with Candida tropicalis [16] was more than 10 µM; with Cryptococcus neoformans [18], more than 10 µM; with Candida albicans [19] it was more than 10 µM; in the assay with Rhizopus arrhizus [20] it was 0.6 µM (≈ 0.423 µg/mL); in the assay with Candida parapsilosis [25], 5 µM (≈ 3.53 µg/mL); in the assay on Aspergillus fumigatus [27], more than 10 µM. In addition, the MFC in the assay with Aspergillus fumigatus [31] is more than 10 µM; in the assay with Aspergillus niger [32], 5 µM (≈ 3.53 µg/mL); in the assay with Paecilomyces lilacinus [34], 1.3 µM (≈ 0.917 µg/mL); with Pichia kudriavzevii [35] it was 2.5 µM (≈ 1.76 µg/mL); in the assay with Curvularia lunata [37], 5 µM (≈ 3.53 µg/mL); with Fusarium solani [38] it was 5 µM (≈ 3.53 µg/mL). The MIC80 – broadly, the lowest concentration that inhibits either 80% of growth or 80% of the strains tested, depending on the study – came out at 0.3 µM (≈ 0.212 µg/mL) in the assay on Hamigera insecticola [4]; 0.6 µM (≈ 0.423 µg/mL) with Aspergillus terreus [6]; 1.3 µM (≈ 0.917 µg/mL) in the assay with Aspergillus fumigatus [7]; 0.2 µM (≈ 0.141 µg/mL) with Aspergillus flavus [12]; 10 µM (≈ 7.06 µg/mL) with Mucor circinelloides [13]; 0.135 µM (≈ 0.0953 µg/mL) in the assay with Candida albicans [14]. Moreover, the MIC80 in the assay with Candida tropicalis [16] stood at 0.6 µM (≈ 0.423 µg/mL); in the assay on Cryptococcus neoformans [18] it was 0.6 µM (≈ 0.423 µg/mL); in the assay with Candida albicans [19], 0.06 µM (≈ 0.0423 µg/mL); in the assay with Rhizopus arrhizus [20], 0.6 µM (≈ 0.423 µg/mL); in the assay with Candida parapsilosis [25] it was 0.6 µM (≈ 0.423 µg/mL); in the assay with Aspergillus fumigatus [27], 1.3 µM (≈ 0.917 µg/mL). In addition, the MIC80 with Aspergillus fumigatus [31] was 5 µM (≈ 3.53 µg/mL); in the assay on Aspergillus niger [32], 2.5 µM (≈ 1.76 µg/mL); with Paecilomyces lilacinus [34], 2.5 µM (≈ 1.76 µg/mL); in the assay on Pichia kudriavzevii [35] it was 0.6 µM (≈ 0.423 µg/mL); in the assay with Curvularia lunata [37], 2.5 µM (≈ 1.76 µg/mL); in the assay on Fusarium solani [38] it was 2.5 µM (≈ 1.76 µg/mL). Further, the “MFC<=99.9” value in the assay with Cryptococcus neoformans [5] is more than 10 µM; in the assay on Aspergillus terreus [8], 2.5 µM (≈ 1.76 µg/mL); in the assay with Pichia kudriavzevii [9] it was 2.5 µM (≈ 1.76 µg/mL); in the assay with Paecilomyces lilacinus [10] it was 1.3 µM (≈ 0.917 µg/mL); in the assay with Candida albicans [11], more than 10 µM; in the assay with Fusarium solani [15], 5 µM (≈ 3.53 µg/mL). Further, the “MFC<=99.9” value in the assay on Aspergillus flavus [17] was 0.6 µM (≈ 0.423 µg/mL); with Candida parapsilosis [21] it was 5 µM (≈ 3.53 µg/mL); in the assay on Curvularia lunata [22], 5 µM (≈ 3.53 µg/mL); with Aspergillus fumigatus [23] it was 10 µM (≈ 7.06 µg/mL); with Hamigera insecticola [24], 1.35 µM (≈ 0.953 µg/mL); in the assay on Mucor circinelloides [26] it was more than 10 µM. The “MFC<=99.9” value was more than 10 µM in the assay with Candida albicans [28]; 5 µM (≈ 3.53 µg/mL) with Aspergillus niger [29]; more than 10 µM in the assay with Aspergillus fumigatus [30]; 0.6 µM (≈ 0.423 µg/mL) in the assay on Rhizopus arrhizus [33]; more than 10 µM in the assay with Aspergillus fumigatus [36]; more than 10 µM in the assay on Candida tropicalis [39].
Turning to `OC(Cn1cncn1)(Cn1cncn1)c1ccc(F)cc1F`, the result with Aspergillus fumigatus [40] and in the assay with Candida albicans [41] was inactive.
